Like-named read-outs stand apart in the source and are kept apart here. Marks after values point to notes of the source that are not given here.
Columns and labels:
β3-AR = β3-AR (Homo sapiens, UniProt P13945)
patients with OAB = experiment: Phase 2b cardiovascular safety: orthostatic AEs, HR and BP changes; format: in vivo, human; conditions: for DBP change from baseline ≥5 mm Hg, subjects / DBP change from baseline ≥10 bpm, subjects / DBP change from baseline ≥15 bpm, subjects / HR change from baseline ≥5 bpm, subjects / HR change from baseline ≥10 bpm, subjects / HR change from baseline ≥15 bpm, subjects / SBP change from baseline ≥5 mm Hg, subjects / SBP change from baseline ≥10 bpm, subjects / SBP change from baseline ≥15 bpm, subjects: 3 consecutive post-baseline visits
Text: None led to discontinuation. The overall incidence of orthostatic symptoms was low.
Small differences in the percent of subjects exceeding categorical heart rate and blood pressure thresholds for vibegron were similar to those in the tolterodine arm.

[1] = Drug interaction study of vibegron 75 mg and rifampin; format: in vivo, human
[2] = Multiple rising dose Phase 1 pharmacokinetics; format: in vivo, human
Text: The steady state AUC geometric mean accumulation ratios were ˜2 in young male subjects and ˜2.8 in elderly subjects (male and female).
Although exposures were similar in middle-aged males when compared to young males, plasma concentrations were higher in elderly compared to middle-aged and young subjects. […] Furthermore, the steady state AUC geometric mean accumulation ratios were ˜2 in young males and ˜2.8 in the elderly.

[3] = test system: patients with overactive bladder; experiment: Phase 2 safety data, adverse events (main study and 52-week extension)
Text: A placebo group was included in the main study, and a group that received tolterodine monotherapy was included in the main study and in the extension.

[4] = Vibegron + Rifampin 600 mg QD, single dose 75 mg, healthy adults
[5] = Vibegron alone, single dose 75 mg, healthy adults
[6] = elderly female subjects, 100 mg
[7] = multiple dose 25 mg, after 14 days, healthy young males
[8] = multiple dose 50 mg, after 14 days, Japanese healthy young males
[9] = multiple dose 50 mg, after 14 days, healthy young males
[10] = multiple dose 100 mg, after 14 days, Japanese healthy young males
[11] = multiple dose 100 mg, after 14 days, elderly Japanese
[12] = multiple dose 100 mg, after 14 days, elderly male and female
[13] = multiple dose 100 mg, after 14 days, healthy young males
[14] = multiple dose 150 mg, after 14 days, healthy young males
[15] = multiple dose 150 mg, after 14 days, middle-aged female
[16] = multiple dose 150 mg, after 14 days, middle-aged male
[17] = multiple dose 200 mg, after 14 days, Japanese healthy young males
[18] = multiple dose 200 mg, after 14 days, healthy young males
[19] = multiple dose 300 mg, after 14 days, healthy young males
[20] = multiple dose 400 mg, after 14 days, healthy young males

β3-AR, sequence (P13945 whole entry): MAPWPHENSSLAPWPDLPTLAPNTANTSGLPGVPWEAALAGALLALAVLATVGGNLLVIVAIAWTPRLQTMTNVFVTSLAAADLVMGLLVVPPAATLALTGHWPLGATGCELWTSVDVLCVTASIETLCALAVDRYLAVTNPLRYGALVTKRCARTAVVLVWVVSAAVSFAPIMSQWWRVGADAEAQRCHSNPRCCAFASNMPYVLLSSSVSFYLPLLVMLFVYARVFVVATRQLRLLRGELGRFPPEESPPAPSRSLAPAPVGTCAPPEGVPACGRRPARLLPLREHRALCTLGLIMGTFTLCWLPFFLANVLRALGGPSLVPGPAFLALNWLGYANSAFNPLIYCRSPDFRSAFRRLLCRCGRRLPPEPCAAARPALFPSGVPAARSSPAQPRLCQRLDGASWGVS

## O=C(Nc1ccc(C[C@@H]2CC[C@H]([C@H](O)c3ccccc3)N2)cc1)[C@@H]1CCc2nccc(=O)n21 [Vibegron, (6S)—N-[4-[[(2S,5R)-5-[(R)-hydroxy(phenyl)methyl]pyrrolidin-2-yl]methyl]phenyl]-4-oxo-7,8-dihydro-6H-pyrrolo[1,2-a]pyrimidine-6-carboxamide]
β3-AR
  β3-AR IC50: 86 ng/mL
Patients with OAB; 50 mg and 100 mg
  SBP and DBP mean changes at Week 1 and mean maximum changes over 8 weeks, difference between placebo and vibegron: < 1 mm Hg
Patients with OAB; all doses
  HR mean maximum changes over 8 weeks, comparable to placebo: < 2 bpm
Patients with OAB; vibegron 3 mg
  DBP change from baseline, mean (week 1): −0.37 mm Hg
  DBP change from baseline, mean maximum (week 1 to 8): 5.03 mm Hg
  HR change from baseline, mean (week 1): 0.36 bpm
  HR change from baseline, mean maximum (week 1 to 8): 5.57 bpm
  SBP change from baseline, mean (week 1): −0.35 mm Hg
  SBP change from baseline, mean maximum (week 1 to 8): 7.14 mm Hg
  DBP change from baseline ≥5 mm Hg, subjects: (10.0) %
  DBP change from baseline ≥10 bpm, subjects: (2.1) %
  DBP change from baseline ≥15 bpm, subjects: (0.7) %
  HR change from baseline ≥5 bpm, subjects: (11.4) %
  HR change from baseline ≥10 bpm, subjects: (3.6) %
  HR change from baseline ≥15 bpm, subjects: (0.7) %
  SBP change from baseline ≥5 mm Hg, subjects: (15.0) %
  SBP change from baseline ≥10 bpm, subjects: (7.1) %
  SBP change from baseline ≥15 bpm, subjects: (2.9) %
Patients with OAB; vibegron 15 mg
  DBP change from baseline, mean (week 1): 0.03 mm Hg
  DBP change from baseline, mean maximum (week 1 to 8): 6.37 mm Hg
  HR change from baseline, mean (week 1): 0.35 bpm
  HR change from baseline, mean maximum (week 1 to 8): 6.56 bpm
  SBP change from baseline, mean (week 1): −0.34 mm Hg
  SBP change from baseline, mean maximum (week 1 to 8): 8.93 mm Hg
  DBP change from baseline ≥5 mm Hg, subjects: (11.4) %
  DBP change from baseline ≥10 bpm, subjects: (2.3) %
  DBP change from baseline ≥15 bpm, subjects: (0.8) %
  HR change from baseline ≥5 bpm, subjects: (12.9) %
  HR change from baseline ≥10 bpm, subjects: (3.0) %
  HR change from baseline ≥15 bpm, subjects: (0.8) %
  SBP change from baseline ≥5 mm Hg, subjects: (16.7) %
  SBP change from baseline ≥10 bpm, subjects: (6.8) %
  SBP change from baseline ≥15 bpm, subjects: (0.8) %
Patients with OAB; vibegron 15 mg group
  subjects with orthostatic related AEs: 0.3%
Patients with OAB; vibegron 50 mg
  DBP change from baseline, mean (week 1): −0.70 mm Hg
  DBP change from baseline, mean maximum (week 1 to 8): 4.19 mm Hg
  HR change from baseline, mean (week 1): 0.29 bpm
  HR change from baseline, mean maximum (week 1 to 8): 5.49 bpm
  SBP change from baseline, mean (week 1): −0.79 mm Hg
  SBP change from baseline, mean maximum (week 1 to 8): 7.01 mm Hg
  DBP change from baseline ≥5 mm Hg, subjects: (7.6) %
  DBP change from baseline ≥10 bpm, subjects: (3.5) %
  DBP change from baseline ≥15 bpm, subjects: (0.7) %
  HR change from baseline ≥5 bpm, subjects: (8.3) %
  HR change from baseline ≥10 bpm, subjects: (2.8) %
  HR change from baseline ≥15 bpm, subjects: (0.7) %
  SBP change from baseline ≥5 mm Hg, subjects: (16.7) %
  SBP change from baseline ≥10 bpm, subjects: (9.7) %
  SBP change from baseline ≥15 bpm, subjects: (2.1) %
Patients with OAB; vibegron 50 mg+tolterodine ER/vibegron 50 mg treatment group
  subjects with orthostatic related AEs: 0.8%
Patients with OAB; vibegron 100 mg
  DBP change from baseline, mean (week 1): −0.69 mm Hg
  DBP change from baseline, mean maximum (week 1 to 8): 4.80 mm Hg
  HR change from baseline, mean (week 1): 0.35 bpm
  HR change from baseline, mean maximum (week 1 to 8): 6.12 bpm
  SBP change from baseline, mean (week 1): −0.77 mm Hg
  SBP change from baseline, mean maximum (week 1 to 8): 6.51 mm Hg
  DBP change from baseline ≥5 mm Hg, subjects: (13.1) %
  DBP change from baseline ≥10 bpm, subjects: (3.4) %
  HR change from baseline ≥5 bpm, subjects: (11.8) %
  HR change from baseline ≥10 bpm, subjects: (3.0) %
  HR change from baseline ≥15 bpm, subjects: (0.4) %
  SBP change from baseline ≥5 mm Hg, subjects: (11.8) %
  SBP change from baseline ≥10 bpm, subjects: (4.2) %
  SBP change from baseline ≥15 bpm, subjects: (1.3) %
Patients with OAB; vibegron 100 mg group
  subjects with orthostatic related AEs: 1.1%
[1]; [4]
  CL/F, geometric mean (% CV): 57.3 (30.1) L/hr
  V/F, geometric mean (% CV): 6140 (47.0) L
  t1/2, geometric mean (% CV): 74.2 (25.2) h
[1]; [5]
  CL/F, geometric mean (% CV): 57.2 (39.7) L/hr
  V/F, geometric mean (% CV): 6930 (48.6) L
[1]; vibegron 75 mg and rifampin, healthy male and female subjects
  tolerability: well tolerated
[1]; vibegron 75 mg single doses and rifampin 600 mg QD, 3 of 20 subjects
  subjects with an AE related to study drug: 15%
[2]; 100 mg QD
  steady state Cmax, elderly compared to young males: ~1.3 fold
[2]; 100 mg, elderly subjects
  fe0-24 hr,ss: ~17%
[2]; 100 and 150 mg, young males
  fe0-24 hr,ss: ~14%
[2]; 100 or 150 mg
  steady state AUC higher in middle-aged females vs middle-aged males: ~1.5 fold
[2]; Day 14
  steady state exposure (AUC0-24) higher in elderly Japanese vs elderly non-Japanese: 35%
[2]; [6]
  steady state AUC0-24 hr: 2620 ng·h/mL
  steady state Cmax: 278 ng/mL
[2]; elderly subjects (male and female)
  renal clearance (CLR) at steady state: 127 mL/min
[2]; human, plasma, oral, multiple dose 150 mg, after 14 days, middle-aged female, read-out: AUC0-24
  AUC0-24: 3180 ± 925 ng·h/mL
[2]; multiple dose
  steady state exposures higher in Japanese vs non-Japanese young males: ~30%
[2]; [7]
  AUC0-24: 164 ± 25.9 ng·h/mL
  Cmax: 15.6 ± 6.93 ng/mL
  t1/2 (harmonic mean ± pseudo SD): 94.0 ± 9.60 h
[2]; [8]
  AUC0-24: 613 ± 296 ng·h/mL
  Cmax: 56.9 ± 34.2 ng/mL
  t1/2 (harmonic mean ± pseudo SD): 69.4 ± 6.6 h
[2]; [9]
  AUC0-24: 507 ± 176 ng·h/mL
  Cmax: 41.5 ± 12.3 ng/mL
  Ctrough: 15.2 ± 5.07 ng/mL
  t1/2 (harmonic mean ± pseudo SD): 77.2 ± 8.9 h
[2]; [10]
  AUC0-24: 1710 ± 542 ng·h/mL
  t1/2 (harmonic mean ± pseudo SD): 56.8 ± 19.2 h
[2]; [11]
  AUC0-24: 2920 ± 693 ng·h/mL
  t1/2 (harmonic mean ± pseudo SD): 75.1 ± 3.9 h
[2]; [12]
  AUC0-24: 2230 ± 671 ng·h/mL
  Cmax: 224 ± 92.0 ng/mL
  Ctrough: 54.2 ± 15.3 ng/mL
  t1/2 (harmonic mean ± pseudo SD): 88.4 ± 10.7 h
[2]; [13]
  AUC0-24: 1280 ± 529 ng·h/mL
  Cmax: 169 ± 80.9 ng/mL
  Ctrough: 31.9 ± 11.5 ng/mL
  t1/2 (harmonic mean ± pseudo SD): 79.7 ± 11.5 h
[2]; [14]
  AUC0-24: 2285 ± 1140 ng·h/mL
  Cmax: 305 ± 215 ng/mL
  t1/2 (harmonic mean ± pseudo SD): 79.2 ± 9.2 h
[2]; [15]
  Cmax: 246 ± 139 ng/mL
  t1/2 (harmonic mean ± pseudo SD): 83.1 ± 17.2 h
[2]; [16]
  AUC0-24: 2170 ± 452 ng·h/mL
  Cmax: 293 ± 67.1 ng/mL
[2]; multiple dose 150 mg, middle-aged male, determined after 28 days of dosing
  t1/2 (harmonic mean ± pseudo SD): 72.7 ± 16.1^d hr
[2]; [17]
  AUC0-24: 4370 ± 618 ng·h/mL
  Cmax: 631 ± 154 ng/mL
  t1/2 (harmonic mean ± pseudo SD): 59.5 ± 1.9 h
[2]; [18]
  AUC0-24: 3200 ± 1120 ng·h/mL
  Cmax: 313 ± 168 ng/mL
  t1/2 (harmonic mean ± pseudo SD): 64.7 ± 6.5 h
[2]; [19]
  AUC0-24: 6980 ± 1040 ng·h/mL
  t1/2 (harmonic mean ± pseudo SD): 61.7 ± 7.3 h
[2]; [20]
  AUC0-24: 10500 ± 2140 ng·h/mL
  Cmax: 1400 ± 257 ng/mL
  t1/2 (harmonic mean ± pseudo SD): 58.9 ± 5.9 h
[2]; once daily dosing
  time to steady state concentrations: ≤ 7 days
[2]; regardless of age
  higher exposures (AUC) in females compared with males: 50%
[2]; steady state
  Cmax increased in elderly Japanese vs elderly non-Japanese: 82%
[3]; 3 mg, first 12 weeks
  Accidental overdose, % subjects: (2.1) %
  Accidental overdose, n subjects: 3
[3]; 15 mg, first 12 weeks
  Accidental overdose, % subjects: (4.5) %
  Accidental overdose, n subjects: 6
[3]; 50 mg, first 12 weeks
  Accidental overdose, % subjects: (2.7) %
  Accidental overdose, n subjects: 4
[3]; 100 mg, first 12 weeks
  Accidental overdose, % subjects: (4.2) %
  Accidental overdose, n subjects: 11
  ≥1 AE, n subjects: 107
[3]; human, in vivo
  frequency of injuries: 0.9%
  increased exposure (potential risk): ~2 fold

— US20230218624A1 (Urovant Sciences GmbH, priority 2017, published 2023)
